Reference: ChEMBL document CHEMBL1145000, “Nitro and amino substitution in the D-ring of 5-(2-dimethylaminoethyl)- 2,3-methylenedioxy-5H-dibenzo[c,h][1,6]naphthyridin-6-ones: effect on topoisomerase-I targeting activity and cytotoxicity” (J Med Chem, 2003)

How the values were obtained:
[1] = biological target: T1, DNA topoisomerase 1 (Homo sapiens) (UniProt P11387)
T1 sequence (whole entry): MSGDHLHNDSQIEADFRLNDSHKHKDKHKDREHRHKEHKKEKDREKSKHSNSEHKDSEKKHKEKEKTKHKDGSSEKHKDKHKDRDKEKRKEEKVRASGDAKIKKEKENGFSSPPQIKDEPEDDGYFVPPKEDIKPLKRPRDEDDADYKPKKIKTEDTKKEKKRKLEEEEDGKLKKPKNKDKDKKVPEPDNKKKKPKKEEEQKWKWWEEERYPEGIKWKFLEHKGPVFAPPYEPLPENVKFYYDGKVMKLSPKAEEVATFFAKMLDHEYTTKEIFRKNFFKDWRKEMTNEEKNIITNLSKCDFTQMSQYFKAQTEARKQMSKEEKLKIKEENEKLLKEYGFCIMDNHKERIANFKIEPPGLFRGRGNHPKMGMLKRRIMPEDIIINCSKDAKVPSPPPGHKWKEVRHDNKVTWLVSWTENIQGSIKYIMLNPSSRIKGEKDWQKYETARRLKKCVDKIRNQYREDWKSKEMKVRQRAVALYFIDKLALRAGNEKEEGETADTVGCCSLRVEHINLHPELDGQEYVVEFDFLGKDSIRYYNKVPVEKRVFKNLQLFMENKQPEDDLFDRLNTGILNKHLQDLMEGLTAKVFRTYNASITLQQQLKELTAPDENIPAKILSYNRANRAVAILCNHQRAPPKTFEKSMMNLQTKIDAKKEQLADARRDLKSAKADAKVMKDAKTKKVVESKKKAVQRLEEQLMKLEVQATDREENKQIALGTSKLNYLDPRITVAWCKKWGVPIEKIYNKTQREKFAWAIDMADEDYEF
Description: Effective concentration required to cleave DNA, mediated by human DNA topoisomerase I (TOP1) reported as REC i.e. concentration relative to topotecan (assumed as 1)

[2] = Cytotoxic activity against human lymphoblast tumor cell line CPT-K5 after 4 days of treatment; type: functional; details: CPT-K5, 96 h
[3] = system: RPMI 8402; assay: Cytotoxic activity against human lymphoblast tumor cell line RPMI8402 after 4 days of treatment; type: functional, cell-based; details: RPMI 8402, 96 h

Row | Structure (SMILES) | REC [1] | IC50 [2] | IC50 [3]
1 | CN(C)CCn1c(=O)c2ccccc2c2cnc3cc4c(cc3c21)OCO4 | 6 | 0.95 µM | 0.06 µM
2 | CN1CCN(c2ccnc3cc4c(cc23)OCO4)C(=O)c2cc([N+](=O)[O-])ccc21 | 1000 | > 10 µM | 3 µM
3 | CCCCn1c(=O)c2cc(N)ccc2c2cnc3cc4c(cc3c21)OCO4 | 500 | > 10 µM | 1.25 µM
4 | CN(C)CCn1c(=O)c2cc(N)ccc2c2cnc3cc4c(cc3c21)OCO4 | 8 | 0.38 µM | 0.08 µM
5 | COc1cc2c(=O)n(CCN(C)C)c3c4cc5c(cc4ncc3c2cc1OC)OCO5 | – | 0.9 µM | –
6 | COc1cc([C@@H]2c3cc4c(cc3[C@@H](O[C@@H]3O[C@@H]5CO[C@@H](c6cccs6)O[C@H]5[C@H](O)[C@H]3O)[C@H]3COC(=O)[C@H]23)OCO4)cc(OC)c1O [TENIPOSIDE] | > 1000 | 0.28 µM | –
7 | CCCCn1c(=O)c2cc([N+](=O)[O-])ccc2c2cnc3cc4c(cc3c21)OCO4 | 10 | > 10 µM | 0.24 µM
8 | CN(C)CCn1c(=O)c2cccc([N+](=O)[O-])c2c2cnc3cc4c(cc3c21)OCO4 | 1000 | > 10 µM | 4.8 µM
9 | CN(C)CCn1c(=O)c2ccc([N+](=O)[O-])cc2c2cnc3cc4c(cc3c21)OCO4 | 0.1 | 2.8 µM | 0.002 µM
10 | COc1cc2c(=O)n(CCN(C)C)c3c4cc5c(cc4nnc3c2cc1OC)OCO5 | 0.3 | 0.6 µM | –
11 | CC[C@@]1(O)C(=O)OCc2c1cc1n(c2=O)Cc2cc3ccccc3nc2-1 [CAMPTOTHECIN] | 0.5 | – | 0.005 µM
12 | CN(C)CCn1c(=O)c2cc([N+](=O)[O-])ccc2c2cnc3cc4c(cc3c21)OCO4 | 0.2 | 0.33 µM | 0.003 µM
13 | CC[C@@]1(O)C(=O)OCc2c1cc1n(c2=O)Cc2cc3c(CN(C)C)c(O)ccc3nc2-1 [TOPOTECAN] | 1 | > 50 µM | –
14 | CN(C)CCn1c(=O)c2cccc(N)c2c2cnc3cc4c(cc3c21)OCO4 | 15 | 3.2 µM | 0.34 µM
15 | CN(C)CCn1c(=O)c2ccc(N)cc2c2cnc3cc4c(cc3c21)OCO4 | 0.5 | 1 µM | 0.025 µM
